Experimental data as given in PubChem BioAssay (NCI).
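Values below derive from 48-hour exposures of cells grown in 96-well plates, with endpoints linearly interpolated between the two concentrations bracketing the appropriate inhibition level. GI50 is the concentration that inhibits growth by half. TGI marks complete inhibition of growth.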

Key:
Assay in all cases: NCI tumour cell line growth inhibition, 48 h
MALME-3M melanoma = tested on: MALME-3M melanoma
RXF 393 renal = tested on: RXF 393 renal
IGROV1 ovarian = tested on: IGROV1 ovarian
SK-MEL-5 melanoma = tested on: SK-MEL-5 melanoma
UACC-257 melanoma = tested on: UACC-257 melanoma
TK-10 renal = tested on: TK-10 renal
BT-549 breast = tested on: BT-549 breast
HCC-2998 colon = tested on: HCC-2998 colon
A498 renal = tested on: A498 renal
HS 578T breast = tested on: HS 578T breast
HL-60(TB) leukemia = tested on: HL-60(TB) leukemia
K-562 leukemia = tested on: K-562 leukemia
A549 NSCLC = tested on: A549 NSCLC
NCI/ADR-RES ovarian = tested on: NCI/ADR-RES ovarian
HCT-116 colon = tested on: HCT-116 colon
SNB-19 CNS = tested on: SNB-19 CNS
SN12C renal = tested on: SN12C renal
SF-268 CNS = tested on: SF-268 CNS
SF-295 CNS = tested on: SF-295 CNS
OVCAR-5 ovarian = tested on: OVCAR-5 ovarian
MDA-MB-231 breast = tested on: MDA-MB-231 breast
OVCAR-4 ovarian = tested on: OVCAR-4 ovarian
SW-620 colon = tested on: SW-620 colon
CCRF-CEM leukemia = tested on: CCRF-CEM leukemia
RPMI-8226 leukemia = tested on: RPMI-8226 leukemia
CAKI-1 renal = tested on: CAKI-1 renal
UO-31 renal = tested on: UO-31 renal
MDA-MB-435 = tested on: MDA-MB-435
NCI-H23 lung = tested on: NCI-H23 lung
HOP-92 NSCLC = tested on: HOP-92 NSCLC
M14 melanoma = tested on: M14 melanoma
NCI-H226 lung = tested on: NCI-H226 lung
NCI-H522 lung = tested on: NCI-H522 lung
HT29 colon = tested on: HT29 colon
UACC-62 melanoma = tested on: UACC-62 melanoma
MCF7 breast = tested on: MCF7 breast
PC-3 prostate = tested on: PC-3 prostate
SK-MEL-28 melanoma = tested on: SK-MEL-28 melanoma
HOP-62 NSCLC = tested on: HOP-62 NSCLC
OVCAR-8 ovarian = tested on: OVCAR-8 ovarian
U251 CNS = tested on: U251 CNS
LOX IMVI melanoma = tested on: LOX IMVI melanoma
SK-OV-3 ovarian = tested on: SK-OV-3 ovarian
SK-MEL-2 melanoma = tested on: SK-MEL-2 melanoma
DU-145 prostate = tested on: DU-145 prostate
KM12 colon = tested on: KM12 colon
SF-539 CNS = tested on: SF-539 CNS
HCT-15 colon = tested on: HCT-15 colon
NCI-H460 lung = tested on: NCI-H460 lung
EKVX NSCLC = tested on: EKVX NSCLC
COLO 205 colon = tested on: COLO 205 colon
786-0 renal = tested on: 786-0 renal
ACHN renal = tested on: ACHN renal
SR leukemia = tested on: SR leukemia
OVCAR-3 ovarian = tested on: OVCAR-3 ovarian
SNB-75 CNS = tested on: SNB-75 CNS
T-47D breast = tested on: T-47D breast
MOLT-4 leukemia = tested on: MOLT-4 leukemia

Compound: CC[C@H](C)[C@H](NC(=O)CN(C)C)C(=O)N(C)[C@H](C[C@@H](OC(C)=O)c1nc(C(=O)NC23C4C5C2C2C3C4C52C(=O)OC)cs1)C(C)C (some centres undefined)
- TGI (MALME-3M melanoma): > 33200 nM
- GI50 (RXF 393 renal): 387 nM
- TGI (RXF 393 renal): > 33200 nM
- GI50 (IGROV1 ovarian): 428 nM
- TGI (IGROV1 ovarian): > 33200 nM
- GI50 (SK-MEL-5 melanoma): 299 nM
- TGI (SK-MEL-5 melanoma): 6750 nM
- GI50 (UACC-257 melanoma): 4310 nM
- TGI (UACC-257 melanoma): > 33200 nM
- GI50 (TK-10 renal): 9480 nM
- TGI (TK-10 renal): > 33200 nM
- GI50 (BT-549 breast): 431 nM
- TGI (BT-549 breast): > 20100 nM
- GI50 (HCC-2998 colon): 631 nM
- TGI (HCC-2998 colon): > 33200 nM
- GI50 (A498 renal): 993 nM
- TGI (A498 renal): 21500 nM
- GI50 (HS 578T breast): 176 nM
- TGI (HS 578T breast): > 33200 nM
- GI50 (HL-60(TB) leukemia): 77.7 nM
- TGI (HL-60(TB) leukemia): 242 nM
- GI50 (K-562 leukemia): 138 nM
- TGI (K-562 leukemia): > 33200 nM
- GI50 (A549 NSCLC): 2120 nM
- TGI (A549 NSCLC): > 33200 nM
- GI50 (NCI/ADR-RES ovarian): 11100 nM
- TGI (NCI/ADR-RES ovarian): > 33200 nM
- GI50 (HCT-116 colon): 201 nM
- TGI (HCT-116 colon): > 33200 nM
- GI50 (SNB-19 CNS): 1310 nM
- TGI (SNB-19 CNS): > 33200 nM
- GI50 (SN12C renal): 276 nM
- TGI (SN12C renal): > 18800 nM
- GI50 (SF-268 CNS): 668 nM
- TGI (SF-268 CNS): > 33200 nM
- GI50 (SF-295 CNS): 552 nM
- TGI (SF-295 CNS): > 33200 nM
- GI50 (OVCAR-5 ovarian): > 10400 nM
- TGI (OVCAR-5 ovarian): > 33200 nM
- GI50 (MDA-MB-231 breast): 352 nM
- TGI (MDA-MB-231 breast): 4620 nM
- GI50 (OVCAR-4 ovarian): 2810 nM
- TGI (OVCAR-4 ovarian): > 33200 nM
- GI50 (SW-620 colon): 226 nM
- TGI (SW-620 colon): > 33200 nM
- GI50 (CCRF-CEM leukemia): 180 nM
- TGI (CCRF-CEM leukemia): > 33200 nM
- GI50 (RPMI-8226 leukemia): 115 nM
- TGI (RPMI-8226 leukemia): > 11400 nM
- GI50 (CAKI-1 renal): 7130 nM
- TGI (CAKI-1 renal): > 33200 nM
- GI50 (UO-31 renal): 3600 nM
- TGI (UO-31 renal): > 33200 nM
- GI50 (MDA-MB-435): 40.9 nM
- TGI (MDA-MB-435): 1070 nM
- GI50 (NCI-H23 lung): 1420 nM
- TGI (NCI-H23 lung): > 33200 nM
- GI50 (HOP-92 NSCLC): > 33200 nM
- TGI (HOP-92 NSCLC): > 33200 nM
- GI50 (M14 melanoma): 172 nM
- TGI (M14 melanoma): > 33200 nM
- GI50 (NCI-H226 lung): > 29000 nM
- TGI (NCI-H226 lung): > 33200 nM
- GI50 (NCI-H522 lung): 110 nM
- TGI (NCI-H522 lung): > 10800 nM
- GI50 (HT29 colon): 133 nM
- TGI (HT29 colon): > 33200 nM
- GI50 (UACC-62 melanoma): 190 nM
- TGI (UACC-62 melanoma): > 33200 nM
- GI50 (MCF7 breast): 134 nM
- TGI (MCF7 breast): > 33200 nM
- GI50 (PC-3 prostate): 768 nM
- TGI (PC-3 prostate): > 33200 nM
- GI50 (SK-MEL-28 melanoma): 1380 nM
- TGI (SK-MEL-28 melanoma): > 33200 nM
- TGI (HOP-62 NSCLC): > 33200 nM
- GI50 (OVCAR-8 ovarian): 507 nM
- TGI (OVCAR-8 ovarian): > 33200 nM
- GI50 (U251 CNS): 800 nM
- TGI (U251 CNS): > 33200 nM
- GI50 (LOX IMVI melanoma): 321 nM
- TGI (LOX IMVI melanoma): > 33200 nM
- GI50 (SK-OV-3 ovarian): 4150 nM
- TGI (SK-OV-3 ovarian): > 33200 nM
- GI50 (SK-MEL-2 melanoma): 838 nM
- TGI (SK-MEL-2 melanoma): > 33200 nM
- GI50 (DU-145 prostate): 176 nM
- TGI (DU-145 prostate): > 33200 nM
- GI50 (KM12 colon): 740 nM
- TGI (KM12 colon): > 33200 nM
- GI50 (SF-539 CNS): 462 nM
- TGI (SF-539 CNS): > 14100 nM
- GI50 (HCT-15 colon): 1040 nM
- TGI (HCT-15 colon): > 33200 nM
- GI50 (NCI-H460 lung): 814 nM
- TGI (NCI-H460 lung): > 33200 nM
- GI50 (EKVX NSCLC): 2540 nM
- TGI (EKVX NSCLC): > 33200 nM
- GI50 (COLO 205 colon): 247 nM
- TGI (COLO 205 colon): 5530 nM
- GI50 (786-0 renal): 790 nM
- TGI (786-0 renal): > 33200 nM
- GI50 (ACHN renal): 2250 nM
- TGI (ACHN renal): > 33200 nM
- GI50 (SR leukemia): 38 nM
- TGI (SR leukemia): > 33200 nM
- GI50 (OVCAR-3 ovarian): 113 nM
- TGI (OVCAR-3 ovarian): 1310 nM
- GI50 (SNB-75 CNS): 119 nM
- TGI (SNB-75 CNS): > 33200 nM
- GI50 (T-47D breast): > 33200 nM
- TGI (T-47D breast): > 33200 nM
- GI50 (MOLT-4 leukemia): 252 nM
- TGI (MOLT-4 leukemia): > 33200 nM
